In patent US20250195521A1 (Revolution Medicines, Inc., priority 2020, published 2025):

What follows are compounds tested on K-Ras G12C (NCI-H358 cells) (assay: Potency assay: pERK in NCI-H358 cells). Conditions: Homo sapiens, NCI-H358, 4 h, read-out: pERK EC50 (H358 KRAS G12C).
Type: cell-based, human
Protocol: The purpose of this assay is to measure the ability of test compounds to inhibit K-Ras in cells. […] This procedure measures a decrease in cellular pERK in response to test compounds. The procedure described below in NCI-H358 cells is applicable to K-Ras G12C.
Note: This protocol may be executed substituting other cell lines to characterize inhibitors of other RAS variants, including, for example, AsPC-1 (K-Ras G12D), Capan-1 (K-Ras G12V), or NCI-H1355 (K-Ras G13C).
NCI-H358 cells were grown and maintained using media and procedures recommended by the ATCC. On the day prior to compound addition, cells were plated in 384-well cell culture plates (40 μl/well) and grown overnight in a 37° C., 5% CO2 incubator. Test compounds were prepared in 10, 3-fold dilutions in DMSO, with a high concentration of 10 mM. On the day of assay, 40 nL of test compound was added to each well of cell culture plate using an Echo550 liquid handler (LabCyte®). Concentrations of test compound were tested in duplicate. After compound addition, cells were incubated 4 hours at 37° C., 5% CO2. Following incubation, culture medium was removed and cells were washed once with phosphate buffered saline.
In some experiments, cellular pERK level was determined using the AlphaLISA SureFire Ultra p-ERK1/2 Assay Kit (PerkinElmer). Cells were lysed in 25 μL lysis buffer, with shaking at 600 RPM at room temperature. […] After a 2-hour incubation in the dark, 5 μL donor mix was added, plate was sealed, and incubated 2 hours at room temperature. Signal was read on an Envision plate reader (PerkinElmer) using standard AlphaLISA settings. Analysis of raw data was carried out in Excel (Microsoft) and Prism (GraphPad). Signal was plotted vs. the decadal logarithm of compound concentration, and IC50 was determined by fitting a 4-parameter sigmoidal concentration response model.
In other experiments, cellular pERK was determined by In-Cell Western. […] Fixed cells were washed 4 times for 5 minutes with TBS containing 0.1% Triton X-100 (TBST) and then blocked with 100 μL Odyssey blocking buffer (LI-COR) for 60 minutes at room temperature. Primary antibody (PERK, CST-4370, Cell Signaling Technology) was diluted 1:200 in blocking buffer, and 50 μL was added to each well and incubated overnight at 4° C. Cells were washed 4 times for 5 minutes with TBST. Secondary antibody (IR-800CW rabbit, LI-COR, diluted 1:800) and DNA stain DRAQ5 (LI-COR, diluted 1:2000) were added and incubated 1-2 hours at room temperature. Cells were washed 4 times for 5 minutes with TBST. Plates were scanned on a Li—COR Odyssey CLx Imager. Analysis of raw data was carried out in Excel (Microsoft) and Prism (GraphPad). Signal was plotted vs. the decadal logarithm of compound concentration, and IC50 was determined by fitting a 4-parameter sigmoidal concentration response model.

Structure (SMILES)	EC50 [µM]
CCn1c(-c2cccnc2[C@H](C)OC)c2c3cc(ccc31)-c1cc(O)cc(c1)C[C@H](NC(=O)[C@H](C(C)C)N(C)C(=O)[C@@H]1CC1(F)F)C(=O)N1CCC[C@H](N1)C(=O)OCC(C)(C)C2 [Compound A167]	< 5

Same assay, conditions: Homo sapiens; NCI-H358 cells, 4 hours; read-out: pERK EC50 (H358 KRAS G12C)

Structure (SMILES)	EC50 [µM]
CCn1c(-c2cccnc2[C@H](C)OC)c2c3cc(ccc31)-c1csc(n1)C[C@H](NC(=O)[C@H](C(C)C)N(C)C(=O)N1CC(n3nc(C)cc3C)C1)C(=O)N1CCC[C@H](N1)C(=O)OCC(C)(C)C2 [Compound A297]	< 5
CCn1c(-c2cccnc2[C@H](C)OC)c2c3cc(ccc31)-c1csc(n1)C[C@H](NC(=O)[C@H](C(C)C)N(C)C(=O)N1CC(OC(F)F)C1)C(=O)N1CCC[C@H](N1)C(=O)OCC(C)(C)C2 [Compound A302]	< 5
CCn1c(-c2cccnc2[C@H](C)OC)c2c3cc(ccc31)-c1csc(n1)C[C@H](NC(=O)[C@H](C(C)C)N(C)C(=O)N1CCN(C(=O)CO)CC1)C(=O)N1CCC[C@H](N1)C(=O)OCC(C)(C)C2 [Compound A306]	< 5
CCn1c(-c2cccnc2[C@H](C)OC)c2c3cc(ccc31)-c1csc(n1)C[C@H](NC(=O)[C@H](C(C)C)N(C)C(=O)N1CCO[C@@H](C)C1)C(=O)N1CCC[C@H](N1)C(=O)OCC(C)(C)C2 [Compound A309]	< 5
CCN(CC)C1CN(C(=O)N(C)[C@H](C(=O)N[C@H]2Cc3nc(cs3)-c3ccc4c(c3)c(c(-c3cccnc3[C@H](C)OC)n4CC)CC(C)(C)COC(=O)[C@@H]3CCCN(N3)C2=O)C(C)C)C1 [Compound A319]	< 5
CCn1c(-c2cccnc2[C@H](C)OC)c2c3cc(ccc31)-c1csc(n1)C[C@H](NC(=O)[C@H](C(C)C)N(C)C(=O)N(C)CC(C)C)C(=O)N1CCC[C@H](N1)C(=O)OCC(C)(C)C2 [Compound A332]	< 5
CCn1c(-c2cccnc2[C@H](C)OC)c2c3cc(ccc31)-c1csc(n1)C[C@H](NC(=O)[C@H](C(C)C)N(C)C(=O)N1CC(NC)C1)C(=O)N1CCC[C@H](N1)C(=O)OCC(C)(C)C2 [Compound A337]	< 5
CCN(C(=O)N(C)[C@H](C(=O)N[C@H]1Cc2nc(cs2)-c2ccc3c(c2)c(c(-c2cccnc2[C@H](C)OC)n3CC)CC(C)(C)COC(=O)[C@@H]2CCCN(N2)C1=O)C(C)C)C1CC1 [Compound A352]	< 5
CCn1c(-c2cccnc2[C@H](C)OC)c2c3cc(ccc31)-c1csc(n1)C[C@H](NC(=O)[C@H](C(C)C)N(C)C(=O)N(C)C1CC1)C(=O)N1CCC[C@H](N1)C(=O)OCC(C)(C)C2 [Compound A353]	< 5
CCn1c(-c2cccnc2[C@H](C)OC)c2c3cc(ccc31)-c1csc(n1)C[C@H](NC(=O)[C@H](C(C)C)N(C)C(=O)N1CC(CO)C1)C(=O)N1CCC[C@H](N1)C(=O)OCC(C)(C)C2 [Compound A356]	< 5
CCn1c(-c2cccnc2[C@H](C)OC)c2c3cc(ccc31)-c1csc(n1)C[C@H](NC(=O)[C@H]1CCO1)C(=O)N1CCC[C@H](N1)C(=O)OCC(C)(C)C2 [Compound A360]	< 5
CCn1c(-c2cccnc2[C@H](C)OC)c2c3cc(ccc31)-c1cc(O)cc(c1)C[C@H](NC(=O)[C@H](C(C)C)N(C)C(=O)[C@H]1CC[C@@H](CN(C)C)O1)C(=O)N1CCC[C@H](N1)C(=O)OCC(C)(C)C2 [Compound A397]	< 5
CCn1c(-c2cccnc2[C@H](C)OC)c2c3cc(ccc31)-c1cc(O)cc(c1)C[C@H](NC(=O)[C@H](C(C)C)N(C)C(=O)[C@@H]1OC[C@@H]3CCC[C@@H]31)C(=O)N1CCC[C@H](N1)C(=O)OCC(C)(C)C2 [Compound A407]	< 5
CCn1c(-c2cccnc2[C@H](C)OC)c2c3cc(ccc31)-c1csc(n1)C[C@H](NC(=O)[C@H](C(C)C)N(C)C(=O)N1CCN(C(=O)C3(N(C)C)CC3)CC1)C(=O)N1CCC[C@H](N1)C(=O)OCC(C)(C)C2 [Compound A443]	< 5
CCn1c(-c2cccnc2[C@H](C)OC)c2c3cc(ccc31)-c1csc(n1)C[C@H](NC(=O)[C@H](C(C)C)N(C)C(=O)N1CC(N)(C#N)C1)C(=O)N1CCC[C@H](N1)C(=O)OCC(C)(C)C2 [Compound A456]	< 5
CCn1c(-c2cc(N3CCN(C)CC3)cnc2[C@H](C)OC)c2c3cc(ccc31)-c1csc(n1)C[C@H](NC(=O)[C@H](C(C)C)N(C)C(=O)N1CC(N(C)C)C1)C(=O)N1CCC[C@H](N1)C(=O)OCC(C)(C)C2 [Compound A477]	< 5

Results, then the compound that gave them:

EC50 [µM]	Structure (SMILES)
< 5	CCn1c(-c2cccnc2[C@H](C)OC)c2c3cc(ccc31)-c1cc(O)cc(c1)C[C@H](NC(=O)[C@H](C(C)C)N(C)C(=O)[C@@H]1CCNC1)C(=O)N1CCC[C@H](N1)C(=O)OCC(C)(C)C2 [Compound A129]
< 5	CCn1c(-c2cccnc2[C@H](C)OC)c2c3cc(ccc31)-c1cc(O)cc(c1)C[C@H](NC(=O)[C@H](C(C)C)N(C)C(=O)C1CC3CC1CN3)C(=O)N1CCC[C@H](N1)C(=O)OCC(C)(C)C2 (stereo partly drawn) [Compound A133]
< 5	CCn1c(-c2cccnc2[C@H](C)OC)c2c3cc(ccc31)-c1csc(n1)C[C@H](NC(=O)[C@H](C1CCCC1)N(C)C(C)=O)C(=O)N1CCC[C@H](N1)C(=O)OCC(C)(C)C2 [Compound A141]
< 5	CCn1c(-c2cccnc2[C@H](C)OC)c2c3cc(ccc31)-c1cc(O)cc(c1)C[C@H](NC(=O)[C@H](C(C)C)N(C)C(=O)C1CC13CCNC3)C(=O)N1CCC[C@H](N1)C(=O)OCC(C)(C)C2 (stereo partly drawn) [Compound A148]
< 5	C=C[C@@H]1C[C@]1(N)C(=O)N(C)[C@H](C(=O)N[C@H]1Cc2cc(O)cc(c2)-c2ccc3c(c2)c(c(-c2cccnc2[C@H](C)OC)n3CC)CC(C)(C)COC(=O)[C@@H]2CCCN(N2)C1=O)C(C)C [Compound A149]
< 5	CCn1c(-c2cccnc2[C@H](C)OC)c2c3cc(ccc31)-c1cc(O)cc(c1)C[C@H](NC(=O)[C@H](C(C)C)N(C)C(=O)C1(C#N)CC1)C(=O)N1CCC[C@H](N1)C(=O)OCC(C)(C)C2 [Compound A159]
< 5	CCn1c(-c2cccnc2[C@H](C)OC)c2c3cc(ccc31)-c1cc(O)cc(c1)C[C@H](NC(=O)[C@H](C(C)C)N(C)C(=O)[C@H]1CC1(F)F)C(=O)N1CCC[C@H](N1)C(=O)OCC(C)(C)C2 [Compound A166]
< 5	CCn1c(-c2cccnc2[C@H](C)OC)c2c3cc(ccc31)-c1cc(O)cc(c1)C[C@H](NC(=O)[C@H](C(C)C)N(C)C(=O)C1Cc3cccnc3C1)C(=O)N1CCC[C@H](N1)C(=O)OCC(C)(C)C2 (stereo partly drawn) [Compound A250]
< 5	CCn1c(-c2cnccc2COC)c2c3cc(ccc31)-c1cc(O)cc(c1)C[C@H](NC(=O)C1CCCC1C(F)F)C(=O)N1CCC[C@H](N1)C(=O)OCC(C)(C)C2 (stereo partly drawn) [Compound A261]
< 5	CCN1C[C@@H](C(=O)N(C)[C@H](C(=O)N[C@H]2Cc3cc(O)cc(c3)-c3ccc4c(c3)c(c(-c3cnccc3COC)n4CC)CC(C)(C)COC(=O)[C@@H]3CCCN(N3)C2=O)C(C)C)CC1=O [Compound A262]
< 5	CCn1c(-c2cccnc2[C@H](C)OC)c2c3cc(ccc31)-c1csc(n1)C[C@H](NC(=O)N1CCCC1)C(=O)N1CCC[C@H](N1)C(=O)OCC(C)(C)C2 [Compound A267]
< 5	CCn1c(-c2cccnc2[C@H](C)OC)c2c3cc(ccc31)-c1csc(n1)C[C@H](NC(=O)[C@H](C(C)C)N(C)C(=O)N1CC[C@@H]1C(=O)NC)C(=O)N1CCC[C@H](N1)C(=O)OCC(C)(C)C2 [Compound A281]
< 5	CCn1c(-c2cccnc2[C@H](C)OC)c2c3cc(ccc31)-c1csc(n1)C[C@H](NC(=O)[C@H](C(C)C)N(C)C(=O)N1CCOC3(CN(C)C3)C1)C(=O)N1CCC[C@H](N1)C(=O)OCC(C)(C)C2 [Compound A294]
